Measurements from patent US9920030B2 (priority 2006, dated 2018).

What was measured:
Format in all cases: in vivo
[1] = system: Phytophthora infestans (the causal agent of tomato late blight); test: whole plant or invertebrate
[2] = system: Plasmopara vilicola (the causal agent of grape downy mildew); test: Test A: grape downy mildew, test suspension sprayed on grape seedlings after inoculation, visual disease rating
Summary of the method: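 Curative spray: spores applied first, plants kept 24 h in saturated air at 20 °C and dried before treatment, then 5 days at 20 °C plus 24 h saturated. Suspension: acetone (3% of volume) in 1:1 acetone/water, 250 ppm Trem 014, sprayed to run-off (200 ppm ≈ 500 g/ha); visual 0–100 control rating.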

[3] = system: Phytophthora infestans (the causal agent of tomato late blight); test: whole plant or invertebrate; remark: listed apart in the source
[4] = compounds without asterisk (application rate not given), 100 = 100% disease control, 0 = no control relative to the controls

Molecule | Percent Disease Control, Test B [1, 4] | Percent Disease Control, Test A [2, 4] | Percent Disease Control, Test C [3, 4] | Percent Disease Control, Test B ([1]; * tested at 40 ppm) | Percent Disease Control, Test A ([2]; * tested at 40 ppm) | Percent Disease Control, Test C ([3]; * tested at 40 ppm)
Cc1cc(C(F)(F)F)nn1CC(=O)N1CCC(c2nc(C3=NOC(C(=O)N4CCOCC4)C3)cs2)CC1 (stereo not drawn) [Compound 226] | 100% | 83% | 99% | – | – | –
Cc1cc(C(F)(F)F)nn1CC(=O)N1CCC(c2nc(C3=NOC(CCC(C)C)C3)cs2)CC1 (racemic) [Compound 27] | 100% | 100% | 98% | – | – | –
CCC(=O)N1N=C(c2csc(C3CCN(C(=O)Cn4nc(C(F)(F)F)cc4C)CC3)n2)OC12CCCc1ccccc12 (stereo not drawn) [Compound 227] | 100% | 100% | 100% | – | – | –
Cc1cc(C(F)(F)F)nn1CC(=O)N1CCC(c2nc(C3=NOC4(CCC(c5ccccc5)C4)C3)cs2)CC1 (single isomer, unassigned) [Compound 157] | – | – | – | 100% | 100% | 94%
CC(=O)Oc1ccc(C2CC(c3csc(C4CCN(C(=O)Cn5nc(C(F)(F)F)cc5C)CC4)n3)=NO2)cc1 (stereo not drawn) [Compound 113] | – | – | – | 100% | 99% | 99%
Cc1cc(C(F)(F)F)nn1CC(=O)N1CCC(c2nc(C3=NC(c4ccccc4)CO3)cs2)CC1 (stereo not drawn) [Compound 49] | 100% | 0% | 96% | – | – | –
Cc1cc(C(F)(F)F)nn1CC(=O)N1CCC(c2nc(-c3ccn(-c4ccccc4)n3)cs2)CC1 [Compound 76] | 92% | 72% | 67% | – | – | –
Cc1cc(C(F)(F)F)nn1CC(=O)N1CCC(c2nc(C3=NOC(c4cccs4)C3)cs2)CC1 (stereo not drawn) [Compound 162] | – | – | – | 100% | 100% | 99%
Cc1cc(C(F)(F)F)nn1CC(=O)N1CCC(c2nc(C3=NOC4(CCC(C)(c5ccccc5)CC4)C3)cs2)CC1 (single isomer, unassigned) [Compound 187] | – | – | – | 100% | 99% | 93%
Cc1cc(C(F)(F)F)nn1CC(=O)N1CCC(c2nc(C3=NOC(CO)(c4ccccc4)C3)cs2)CC1 (stereo not drawn) [Compound 159] | 100% | 94% | 99% | – | – | –
Cc1cc(C(F)(F)F)nn1CC(=O)N1CCC(c2nc(C3=NOC(CN4Cc5cccc(Cl)c5S4(=O)=O)C3)cs2)CC1 (stereo not drawn) [Compound 112] | – | – | – | 100% | 76% | 68%
1-[4-[4-(4,5-dihydro-5-(2-pyridinyl)-3-isoxazolyl)-2-thiazolyl]-1-piperidinyl]-2-[5-methyl-3-(trifluoromethyl)-1H-pyrazol-1-yl]ethanone [Compound 98] | 100% | 99% | 99% | – | – | –
Cc1cc(C(F)(F)F)nn1CC(=O)N1CCC(c2nc(C3=NOC(c4nc5ccccc5n4C)C3)cs2)CC1 (stereo not drawn) [Compound 219] | 100% | 100% | 99% | – | – | –
Cc1cc(C(F)(F)F)nn1CC(=O)N1CCC(c2nc(C3=NOC4(CCCc5sccc54)C3)cs2)CC1 (stereo not drawn) [Compound 109] | – | – | – | 100% | 100% | 98%
Cc1cc(C(F)(F)F)nn1CC(=O)N1CCC(c2nc(C3=NOC(c4ccc5ccccc5c4)C3)cs2)CC1 (stereo not drawn) [Compound 88] | – | – | – | 100% | 99% | 99%
Cc1cc(C(F)(F)F)nn1CC(=O)N1CCC(c2nc(-c3ccc(Cl)cc3)cs2)CC1 [Compound 120] | 88% | 99% | 0% | – | – | –
Cc1cc(C(F)(F)F)nn1CC(=O)N1CCC(c2nc(C3=NOC4(CCCC(C#N)C4)C3)cs2)CC1 (single isomer, unassigned) [Compound 253] | – | – | – | 100% | 100% | 95%
Cc1cc(C(F)(F)F)nn1CC(=O)N1CCC(c2nc(C3=NCCN3Cc3ccccc3)cs2)CC1 [Compound 32] | 26% | 0% | 0% | – | – | –
